For data set [1], the target named is Cathepsin B (Homo sapiens (Human), UniProt P07858). Briefly: Cathepsin B inhibition assay. In kind it is biochemical. The settings on record: Table 4; read-out: IC50 (nM) CatB.
For data set [2], the target named is Cathepsin S (Homo sapiens (Human), UniProt P25774). Briefly: Cathepsin S inhibition assay. The settings on record: Table 4; read-out: IC50 (nM) CatS. In kind it is biochemical.
Data set [3] concerns the target Cathepsin K (Homo sapiens (Human), UniProt P43235). Briefly: Cathepsin K inhibition assay. The format is biochemical. To be noted: Table 4; read-out: IC50 (nM) CatK.
Data set [4] concerns the target Cathepsin L (Homo sapiens (Human), UniProt P07711). Briefly: Cathepsin L inhibition assay. In kind it is biochemical. The settings on record: Table 4; read-out: IC50 (nM) CatL.
Data set [5] addresses Cathepsin H (Homo sapiens (Human), UniProt P09668). Briefly: Cathepsin H inhibition assay. The format is biochemical. The settings on record: Table 4; read-out: IC50 (nM) CatH.
Data set [6] has as its target cathepsin F (Homo sapiens (Human), UniProt Q9UBX1). Briefly: Cathepsin F inhibition assay. The format is biochemical. To be noted: Table 4; read-out: IC50 (nM) CatF. The method, then:
(§1) The capacities of compounds of the present invention to inhibit the activity of cathepsins B, H, K, L, and S were measured in similar assays. Boc-Leu-Arg-Arg-AMC (20 μM) in sodium acetate buffer (50 mM, pH 5.5) containing DTT (1 mM) and EDTA (2 mM) was used for the Cathepsin B assay. L-Arg-AMC (20 μM) in sodium acetate buffer (50 mM, pH 5.5) containing DTT (1 mM) and EDTA (2 mM) was used for the Cathepsin H assay. Z-Phe-Arg-AMC (10 μM) in HEPES buffer (50 mM, pH 7.4) containing DTT (2.5 mM) and EDTA (1 mM) was used for the Cathepsin K assay. Z-Phe-Arg-AMC (20 μM) in sodium acetate buffer (50 mM, pH 5.5) containing DTT (1 mM) and EDTA (2 mM) was used for the Cathepsin L assay. Z-Leu-Arg-AMC (10 μM) in sodium acetate buffer (25 mM, pH 4.5) containing DTT (2.5 mM) and NaCl (50 mM) was used for the Cathepsin S assay. The capacities of the compounds to inhibit the activity of cathepsins F, V, and Z were also measured.
(§2) Further assays to measure the inhibitory activity of compounds of the present invention against Kgp and cathepsins B, H, K, L, and S were conducted as described in Example 66. The capacities of the compounds to inhibit the activity of cathepsins F, V, and Z were also measured.

For data set [7], the target named is cathepsin V (Homo sapiens (Human), UniProt O60911). Briefly: Cathepsin V inhibition assay. In kind it is biochemical. To be noted: Table 4; read-out: IC50 (nM) CatV. The method, then: as §1, §2
Chain of cathepsin V (O60911 114-334): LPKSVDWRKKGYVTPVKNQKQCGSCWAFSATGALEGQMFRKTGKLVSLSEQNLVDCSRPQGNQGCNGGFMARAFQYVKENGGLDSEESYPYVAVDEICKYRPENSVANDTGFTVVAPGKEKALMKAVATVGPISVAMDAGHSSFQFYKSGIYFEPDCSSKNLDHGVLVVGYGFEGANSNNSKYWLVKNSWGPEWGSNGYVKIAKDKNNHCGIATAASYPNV
Data set [8] addresses cathepsin Z (Homo sapiens (Human), UniProt Q9UBR2). Briefly: Cathepsin Z inhibition assay. The format is biochemical. To be noted: Table 4; read-out: IC50 (nM) CatZ. On the procedure: as §1, §2
Data set [9] is described as follows: Pharmacokinetics in male CD-1 mice dosed p.o. In kind it is in vivo. The settings on record: p.o. 10 mg/kg, compared to reference compound 73.
Data set [10] deals with arginine gingipain, Rgp. Briefly: Inhibition of arginine gingipain. In kind it is biochemical, Porphyromonas gingivalis. The settings on record: 100 nM.
Data set [11] has as its system P. gingivalis W83. Briefly: Mouse periodontitis model, P. gingivalis DNA in brain tissue (qPCR). In kind it is in vivo, BALB/C mice. To be noted: between week 5 and 10. The method, then:
(§3) At the beginning of the study, eight week old BALB/C female mice received antibiotic in drinking water (sulfamethoxazolum 0.87 mg/mL, trimethoprimum 0.17 mg/mL) for 10 days to reduce microbiome protection from experiment infection. Experimental periodontitis was induced by ligature placement followed by multiple exposures to P. gingivalis. During the ligature procedure mice were anesthetized with an intraperitoneal injection of ketamine (200 mg/kg) and xylazine (10 mg/kg), and eyes were lubricated with ointment (Puralube Vet; Pharmaderm, Melville, N.Y.). Next, a 5-0 silk ligature (Roboz Surgical Instrument Co.) was tied around the upper maxillary left and right second molar. Sutures were applied and tied gently to prevent damage to the periodontal tissue.
Mice (n=8-10/arm) were infected for 6 weeks every other day. For infection, […]. of bacteria solution were applied topically to the buccal surface of the maxillae. For preparation of the bacteria, P. gingivalis W83 (ATCC, Rockville, Md.) was streaked on Tryptic Soy Broth (TSB) agar plates (5% sheep blood, supplemented with 0.5 mg/mL L-cysteine, 5 μg/mL hemin, and 0.5 μg/mL vitamin K) and grown under anaerobic conditions at 37° C. for 5-7 days. Samples were then inoculated in TSB with hemin, vitamin K and L-cysteine (TSB-HKC) until mid-log phase (OD600=0.5-0.7). Bacteria were washed in PBS and prepared at final concentration of 1×10^10 cells/mL in PBS+2% methylcellulose (CMC).
Vehicle-treated animals received PBS only. At 5 weeks, a subgroup of animals (n=16) were euthanized to gather baseline measurements before the start of treatment. After 10 weeks, mice were euthanized and the brain, serum, and maxillary tissues were harvested and frozen in liquid nitrogen.
DNA was extracted from brain tissue using the DNeasyBLOOD & TISSUE KIT (Qiagen, Germany) according to manufacturer's protocol. […] The number of copies of the P. gingivalis genome was calculated by matching Cq values with a standard curve prepared from serial dilutions of cultured P. gingivalis W83 (WT). […]

Data set [12] deals with P. gingivalis W83. Briefly: Mouse periodontitis model, GAD67 positive interneurons in the dentate gyrus. The format is in vivo, BALB/C mice. To be noted: 10 weeks, infected treated mice vs mock-infected. The method, then: as §3
Mice (n=8-10/arm) were infected for 6 weeks every other day. For infection, […]. of bacteria solution were applied topically to the buccal surface of the maxillae. For preparation of the bacteria, P. gingivalis W83 (ATCC, Rockville, Md.) was streaked on Tryptic Soy Broth (TSB) agar plates (5% sheep blood, supplemented with 0.5 mg/mL L-cysteine, 5 μg/mL hemin, and 0.5 μg/mL vitamin K) and grown under anaerobic conditions at 37° C. for 5-7 days. […]
Quantification of GAD67 positive interneurons was performed with CellSens 1.5. […] The number of cells on every 40th section through the hippocampus was counted. […]

The record followed here is patent US10730826B2, “Ketone inhibitors of lysine gingipain” (CORTEXYME, INC., priority 2016, dated 2020).

Chain of cathepsin F (Q9UBX1 271-484): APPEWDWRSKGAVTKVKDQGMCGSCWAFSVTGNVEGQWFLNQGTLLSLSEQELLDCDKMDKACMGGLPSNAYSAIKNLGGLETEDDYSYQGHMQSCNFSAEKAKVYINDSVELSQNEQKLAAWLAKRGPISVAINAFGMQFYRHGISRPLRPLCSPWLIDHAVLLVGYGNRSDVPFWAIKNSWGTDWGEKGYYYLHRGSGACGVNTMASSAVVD
Chain of Cathepsin S (P25774 115-331, species assumed): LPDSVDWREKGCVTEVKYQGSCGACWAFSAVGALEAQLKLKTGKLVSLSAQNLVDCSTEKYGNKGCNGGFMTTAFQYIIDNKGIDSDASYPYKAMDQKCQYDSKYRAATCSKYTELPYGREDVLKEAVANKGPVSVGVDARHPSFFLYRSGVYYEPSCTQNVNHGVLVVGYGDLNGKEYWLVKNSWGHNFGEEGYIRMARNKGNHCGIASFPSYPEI
Chain of Cathepsin H (P09668 98-335, species assumed): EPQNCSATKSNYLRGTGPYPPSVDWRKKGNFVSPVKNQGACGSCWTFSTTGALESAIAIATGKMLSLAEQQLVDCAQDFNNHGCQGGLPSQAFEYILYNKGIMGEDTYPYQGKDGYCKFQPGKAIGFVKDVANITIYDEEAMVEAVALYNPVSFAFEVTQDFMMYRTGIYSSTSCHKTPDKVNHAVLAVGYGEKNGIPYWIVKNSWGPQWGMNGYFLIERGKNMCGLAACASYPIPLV
Chain of Cathepsin L (P07711 114-333, species assumed): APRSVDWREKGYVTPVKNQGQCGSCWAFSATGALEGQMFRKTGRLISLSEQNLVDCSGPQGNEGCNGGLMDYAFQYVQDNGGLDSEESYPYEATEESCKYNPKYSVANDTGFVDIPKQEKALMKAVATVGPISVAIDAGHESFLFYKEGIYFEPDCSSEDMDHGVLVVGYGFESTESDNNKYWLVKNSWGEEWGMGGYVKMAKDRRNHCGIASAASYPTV
Chain of Cathepsin K (P43235 115-329, species assumed): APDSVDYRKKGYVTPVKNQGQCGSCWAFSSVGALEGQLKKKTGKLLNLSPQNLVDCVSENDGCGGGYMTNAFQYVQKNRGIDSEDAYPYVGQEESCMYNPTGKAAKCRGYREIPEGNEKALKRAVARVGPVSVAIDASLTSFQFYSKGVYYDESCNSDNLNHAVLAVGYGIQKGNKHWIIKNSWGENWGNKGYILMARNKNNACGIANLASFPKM
Chain of cathepsin Z (Q9UBR2 62-303): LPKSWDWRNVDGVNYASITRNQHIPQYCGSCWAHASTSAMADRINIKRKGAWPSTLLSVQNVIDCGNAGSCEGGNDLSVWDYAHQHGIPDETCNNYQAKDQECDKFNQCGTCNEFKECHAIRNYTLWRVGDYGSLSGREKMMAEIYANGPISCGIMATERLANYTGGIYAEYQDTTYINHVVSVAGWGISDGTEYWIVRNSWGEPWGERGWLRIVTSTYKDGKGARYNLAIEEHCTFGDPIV

On to `NCCCC[C@H](NC(=O)C1CCCC1)C(=O)COc1c(F)ccc(F)c1F` [Compound 1, (S)—N-(7-amino-2-oxo-1-(2,3,6-trifluorophenoxy)heptan-3-yl)cyclopentanecarboxamide], for which the half-maximal inhibitory concentration (IC50) is 380 nM in [1]; more than 10000 nM in data set [2]; 117 nM in data set [3]; 4680 nM in data set [4]; 560 nM in data set [5]; 6100 nM in data set [6]. Also, the concentration for half-maximal inhibition (IC50) in [7] and in data set [8] was more than 10000 nM each time. The oral availability entry in data set [9] is on record as “improved oral availability”. Moreover, the plasma concentrations entry in data set [9] is listed as “increased plasma concentrations”. In [10], the “inhibition of arginine gingipain, Rgp” value is “does not inhibit”. Besides, the “reduction in P. gingivalis DNA copy number in brain tissue” value in data set [11] (3 mg/kg) is recorded as approximately 50%; in data set [11] (10 mg/kg), approximately 50%; in data set [11] (30 mg/kg), approximately 80%. In data set [12], the “GAD67 positive interneurons in the dentate gyrus” value was “at the same level as the GAD67^+ cells in the mock-infected mice”.

By IC50 is commonly meant the midpoint of a concentration-inhibition curve.
